Literature values, collected in patent publication US6533967B1, “Initiating system for solid polyester granule manufacture” (Orica Australia Pty Ltd, priority 1999, dated 2003).

System: rat
Settings: inhalation of vapours, 4 h

For `CCN(CC)c1ccccc1` [N,N-diethylaniline], which LC50 rat is on record?
The LC50 rat was 1920 mg/m^3/4 h.
